# Laboratory results as given in PubChem BioAssay AID330 (DTP/NCI, 2004).
# Values joined by “and” are separate entries in the source; they are usually repeats but may differ in a detail not shown here. Equal values may be shown once. Toxic doses and inconclusive results are not listed.
# System: P388 leukemia ip, CD2F1 mice, survival T/C
# Assay: NCI In Vivo Anticancer Drug Screen. Data for tumor model P388 Leukemia (intraperitoneal) in CD2F1 (CDF1) mice
# Conditions: endpoint: median survival time, higher = longer survival
# How it was run: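 Mice carrying the transplanted tumor received test compound or vehicle. Survival was recorded in each group, and the value is the treated-group measurement divided by that of the vehicle-treated control group.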
# [1] = dose: 50.0 mg/kg/injection, schedule: Q01DX009 (ip), vehicle: Klucel (hydroxypropylcellulose) (HPC)
# [2] = dose: 100.0 mg/kg/injection, schedule: Q01DX009 (ip), vehicle: Klucel (hydroxypropylcellulose) (HPC)
# [3] = dose: 60.0 mg/kg/injection, schedule: Q01DX005 (ip), vehicle: saline with Tween-80
# [4] = dose: 120.0 mg/kg/injection, schedule: Q01DX005 (ip), vehicle: saline with Tween-80
# [5] = dose: 60.0 mg/kg/injection, schedule: Q01DX005 (ip), vehicle: Klucel (hydroxypropylcellulose) (HPC)
# [6] = dose: 120.0 mg/kg/injection, schedule: Q01DX005 (ip), vehicle: Klucel (hydroxypropylcellulose) (HPC)
# [7] = dose: 240.0 mg/kg/injection, schedule: Q01DX005 (ip), vehicle: Klucel (hydroxypropylcellulose) (HPC)
# [8] = dose: 25.0 mg/kg/injection, schedule: Q01DX009 (ip), vehicle: other
# [9] = dose: 50.0 mg/kg/injection, schedule: Q01DX009 (ip), vehicle: other
# [10] = dose: 100.0 mg/kg/injection, schedule: Q01DX009 (ip), vehicle: other
# [11] = dose: 50.0 mg/kg/injection, schedule: Q01DX009 (ip), vehicle: saline with Tween-80
# [12] = dose: 100.0 mg/kg/injection, schedule: Q01DX009 (ip), vehicle: saline with Tween-80
# [13] = dose: 200.0 mg/kg/injection, schedule: Q01DX009 (ip), vehicle: saline with Tween-80
# [14] = dose: 25.0 mg/kg/injection, schedule: Q01DX009 (ip), vehicle: saline with Tween-80
# [15] = dose: 50.0 mg/kg/injection, schedule: Q01DX009 (ip), vehicle: saline
# [16] = dose: 100.0 mg/kg/injection, schedule: Q01DX009 (ip), vehicle: saline
# [17] = dose: 12.5 mg/kg/injection, schedule: Q01DX005 (ip), vehicle: Klucel (hydroxypropylcellulose) (HPC)
# [18] = dose: 25.0 mg/kg/injection, schedule: Q01DX005 (ip), vehicle: Klucel (hydroxypropylcellulose) (HPC)
# [19] = dose: 240.0 mg/kg/injection, schedule: Q01DX005 (ip), vehicle: saline with Tween-80
# [20] = dose: 200.0 mg/kg/injection, schedule: Q01DX009 (ip), vehicle: saline
smiles,measurement,setting,value
O=C(NCCN1CCCCC1)c1ccc(Cl)cc1Cl,T/C,[1],101 % of control
same,T/C,[2],98 % of control
O=C1C=CC2(O)CCCN12 (stereo unspecified),T/C,"dose: 5.0 mg/kg/injection, schedule: Q01DX005 (ip), vehicle: saline",106 % of control
same,T/C,"dose: 10.0 mg/kg/injection, schedule: Q01DX005 (ip), vehicle: saline",110 % of control
same,T/C,"dose: 20.0 mg/kg/injection, schedule: Q01DX005 (ip), vehicle: saline",118 % of control
O=c1oc2cc(-c3c(O)c4ccccc4oc3=O)c(O)cc2s1,T/C,"dose: 100.0 mg/kg/injection, schedule: Q01DX001 (ip), vehicle: Klucel (hydroxypropylcellulose) (HPC)",113 % of control
same,T/C,"dose: 200.0 mg/kg/injection, schedule: Q01DX001 (ip), vehicle: Klucel (hydroxypropylcellulose) (HPC)",104 % of control
same,T/C,"dose: 400.0 mg/kg/injection, schedule: Q01DX001 (ip), vehicle: Klucel (hydroxypropylcellulose) (HPC)",106 % of control
O=C(Nc1ccc(CCO)cc1)Nc1cc(C(F)(F)F)ccc1Cl,T/C,[3],89 % of control
same,T/C,[4],90 % of control
COc1ccccc1C1OC(=N)C(=S)N1C (stereo unspecified),T/C,[5],107 % of control
same,T/C,[6],111 % of control
same,T/C,[7],113 % of control
O=C(Nc1ccc(Br)cc1)Oc1ccc(Cl)cc1C(=O)c1ccccc1,T/C,[5],105 % of control
same,T/C,[6],105 % of control
same,T/C,[7],108 % of control
COc1ccc(C(=O)c2c(C(=O)NOCCCc3ccccc3)[nH]c(=O)c(C#N)c2C(=O)NOCCCc2ccccc2)cc1,T/C,"dose: 30.0 mg/kg/injection, schedule: Q01DX005 (ip), vehicle: saline with Tween-80",102 % of control
same,T/C,[3],105 % of control
same,T/C,"dose: 60.0 mg/kg/injection, schedule: Q01DX005 (ip), vehicle: saline",109 % of control
same,T/C,[4],96 % of control
CC1CN1P(=O)(OCCC#N)N1CC1C (stereo unspecified),T/C,[8],104 % of control
same,T/C,"dose: 44.0 mg/kg/injection, schedule: Q04DX003 (ip), vehicle: other",118 % of control
same,T/C,[9],110 % of control
same,T/C,"dose: 66.0 mg/kg/injection, schedule: Q04DX003 (ip), vehicle: other",118 % of control
same,T/C,[10],165 % of control and 177 % of control
same,T/C,"dose: 150.0 mg/kg/injection, schedule: Q04DX003 (ip), vehicle: other",163 % of control
CCOC(=O)C1(C(=O)OCC)CCC1,T/C,[1],100 % of control
same,T/C,[2],92 % of control
same,T/C,"dose: 200.0 mg/kg/injection, schedule: Q01DX009 (ip), vehicle: Klucel (hydroxypropylcellulose) (HPC)",96 % of control
same,T/C,"dose: 400.0 mg/kg/injection, schedule: Q01DX009 (ip), vehicle: Klucel (hydroxypropylcellulose) (HPC)",101 % of control
Oc1cc2c3c(c1)c1cc4c(cc1c[n+]3CC2)OCO4,T/C,"dose: 6.25 mg/kg/injection, schedule: Q01DX009 (ip), vehicle: other",151 % of control
same,T/C,"dose: 10.0 mg/kg/injection, schedule: Q01DX005 (ip), vehicle: acid diluted with saline",119 % of control
same,T/C,"dose: 12.5 mg/kg/injection, schedule: Q01DX009 (ip), vehicle: other",155 % of control
same,T/C,"dose: 20.0 mg/kg/injection, schedule: Q01DX005 (ip), vehicle: acid diluted with saline",119 % of control
same,T/C,[8],164 % of control
COc1cccc2c1C(=O)c1c(O)c3c(c(O)c1C2=O)C[C@@](O)(/C(C)=N\NC(=O)CCC(N)C(=O)O)C[C@@H]3OC1CC(N)C(O)C(C)O1 (stereo partly specified) (tested in a mixture with another compound),T/C,"dose: 18.75 mg/kg/injection, schedule: Q04DX003 (ip), vehicle: water",121 % of control
same,T/C,"dose: 75.0 mg/kg/injection, schedule: Q04DX003 (ip), vehicle: water",121 % of control
same,T/C,"dose: 300.0 mg/kg/injection, schedule: Q04DX003 (ip), vehicle: water",163 % of control
COc1cc[c]([Sb]2([c]3ccc(OC)cc3)([c]3ccc(OC)cc3)[NH]c3cc(C(c4ccccc4)(c4ccccc4)c4ccccc4)cc(C(C)(C)C)c3[O]2)cc1,T/C,[11],100 % of control
same,T/C,[12],99 % of control
same,T/C,[13],100 % of control
COc1ccc(-n2c(-c3ccc(Cl)cc3)csc2=N)c(OC)c1,T/C,[14],97 % of control
same,T/C,[11],106 % of control
same,T/C,[15],114 % of control
same,T/C,[12],100 % of control
same,T/C,[16],109 % of control
C1=CC2CCC1C1CSCC21 (stereo unspecified),T/C,"dose: 12.5 mg/kg/injection, schedule: Q01DX009 (ip), vehicle: saline",98 % of control
same,T/C,"dose: 25.0 mg/kg/injection, schedule: Q01DX009 (ip), vehicle: saline",100 % of control
same,T/C,[15],87 % of control and 92 % of control
CC(=O)O.CC(=O)O.CC[OH+]CC[OH+]CC[OH+]C1CCCC2CCC[N-]C21.[Zn] (stereo unspecified),T/C,"dose: 6.25 mg/kg/injection, schedule: Q01DX005 (ip), vehicle: Klucel (hydroxypropylcellulose) (HPC)",111 % of control
same,T/C,[17],105 % of control and 113 % of control (2×)
same,T/C,[18],109 % of control and 113 % of control and 116 % of control
COc1ccc(C(c2cc3c(cc2O)OCO3)N2CCOCC2)c(OC)c1OC (stereo unspecified),T/C,[3],119 % of control
same,T/C,[4],109 % of control
same,T/C,[19],115 % of control
COC(=O)Nc1nc2c(OC)c(OC)c(OC)cc2[nH]1,T/C,"dose: 12.5 mg/kg/injection, schedule: Q01DX005 (ip), vehicle: other",97 % of control
same,T/C,"dose: 25.0 mg/kg/injection, schedule: Q01DX005 (ip), vehicle: other",100 % of control
same,T/C,"dose: 50.0 mg/kg/injection, schedule: Q01DX005 (ip), vehicle: other",100 % of control
same,T/C,"dose: 100.0 mg/kg/injection, schedule: Q01DX005 (ip), vehicle: other",102 % of control
Cc1ccnc(NC2=CC(=O)C(=O)c3ccccc32)c1,T/C,"dose: 37.5 mg/kg/injection, schedule: Q01DX009 (ip), vehicle: saline sonified",122 % of control
CC1=C(c2ccco2)C(c2ccco2)OC1=O (stereo unspecified),T/C,[3],102 % of control
same,T/C,[4],103 % of control
same,T/C,[19],103 % of control
CC(C)OS(=O)(=O)c1ccc([N+](=O)[O-])cc1,T/C,[15],94 % of control
same,T/C,[16],100 % of control
same,T/C,[20],105 % of control
CC(C)Sc1nc(NC(=O)N(CCCl)N=O)cc(=O)[nH]1,T/C,[17],152 % of control
Clc1ccc(C2=NC(c3ccccc3)/C(=C/c3ccccc3)S2)cc1 (stereo unspecified),T/C,[11],101 % of control
same,T/C,[12],98 % of control
same,T/C,[13],90 % of control
COc1nc2c(ccn2C2OC(COC(C)=O)C(OC(C)=O)C(OC(C)=O)C2OC(C)=O)c(=O)[nH]1 (stereo unspecified),T/C,"dose: 100.0 mg/kg/injection, schedule: Q01DX001 (ip), vehicle: saline with Tween-80",104 % of control
same,T/C,"dose: 200.0 mg/kg/injection, schedule: Q01DX001 (ip), vehicle: saline with Tween-80",100 % of control
same,T/C,"dose: 400.0 mg/kg/injection, schedule: Q01DX001 (ip), vehicle: saline with Tween-80",100 % of control
C=C1C(=O)O[C@@H]2C[C@@]3(C)CCC[C@H](C)C3=C[C@H]12,T/C,[14],94 % of control
same,T/C,[11],98 % of control
same,T/C,[12],100 % of control
same,T/C,[13],100 % of control
CCCCCCCCCCCCCCCCOc1ccc(C(=O)CC(=O)OC)cc1,T/C,[9],103 % of control
same,T/C,[10],100 % of control
same,T/C,"dose: 200.0 mg/kg/injection, schedule: Q01DX009 (ip), vehicle: other",95 % of control
same,T/C,"dose: 400.0 mg/kg/injection, schedule: Q01DX009 (ip), vehicle: other",87 % of control
C=C=C(COC(C)=O)ON1CCC(C)CC1,T/C,"dose: 9.0 mg/kg/injection, schedule: Q01DX001 (ip), vehicle: saline",102 % of control
same,T/C,"dose: 18.12 mg/kg/injection, schedule: Q01DX001 (ip), vehicle: saline",102 % of control
same,T/C,"dose: 36.25 mg/kg/injection, schedule: Q01DX001 (ip), vehicle: saline",100 % of control
NC(=O)C[n+]1ccccc1,T/C,[15],101 % of control
same,T/C,[16],111 % of control
same,T/C,[20],118 % of control
same,T/C,"dose: 400.0 mg/kg/injection, schedule: Q01DX009 (ip), vehicle: saline",112 % of control
CC1CN=C(CCc2ccc(NC(=O)c3ccc(C(=O)Nc4ccc(CCC5=NCC(C)N5)cc4)cc3)cc2)N1 (stereo unspecified),T/C,[17],108 % of control
same,T/C,[18],108 % of control
same,T/C,"dose: 100.0 mg/kg/injection, schedule: Q01DX005 (ip), vehicle: Klucel (hydroxypropylcellulose) (HPC)",160 % of control
